# Measurements reported in patent US20240300942A1, “SMALL MOLECULES FOR TREATEMENT OF CANCER” (VRise Therapeutics Inc., priority 2021, published 2024).
# What was measured:
# NCI-H358 cell line = assay: In vitro cell proliferation assay (CCK-8) in NCI-H358 cell line; format: cell-based; conditions: Homo sapiens, 72 hours; for inhibition at 3 µM: TC1: Test Concentration of 3 uM; for inhibition at 10 µM: TC2: Test Concentration of 10 uM
# Description: (§1) Growth inhibition assays is to be carried out using 10% FBS supplemented media. Cells are to be seeded at a desired concentration of 1,500-6,000 cells/well in a 96-well plate. Test compounds at a concentration range from 1 to 30 uM will be added after 24 hours. Growth will be assessed using the CCK-8 kit for measuring reduction at 0 h (prior to the addition of the test compound) and 72 hours after the addition of test compound. Absorbance read on a BIO-RAD iMark Microplate or any equivalent microplate reader at a wavelength of 450 nm. Data was analysed and percent inhibition due to the test compound compared to the control is calculated accordingly.
# MIAPACA-2 cell line = assay: In vitro cell proliferation assay (CCK-8) in MIAPACA-2 cell line; format: cell-based; conditions: Homo sapiens, MIA PaCa-2, 72 hours; for inhibition at 3 µM: TC1: Test Concentration of 3 uM; for inhibition at 10 µM: TC2: Test Concentration of 10 uM
# Description: as §1
Structure (SMILES),inhibition at 3 µM (NCI-H358 cell line) [%],inhibition at 10 µM (NCI-H358 cell line) [%],inhibition at 3 µM (MIAPACA-2 cell line) [%],inhibition at 10 µM (MIAPACA-2 cell line) [%]
"C=CC(=O)N1CCN(c2nc(OC[C@@H]3CCCN3C)c(C#N)c3c2CCN(c2cccc4cccc(Cl)c24)C3)CC1CC#N (mixture of isomers) [Ex 23, 1-(4-acryloyl-3-(cyanomethyl)piperazin-1-yl)-6-(8-chloronaphthalen-1-yl)-3-(((S)-1-methylpyrrolidin-2-yl)methoxy)-5,6,7,8-tetrahydro-2,6-naphthyridine-4-carbonitrile]",75 to 100,75 to 100,75 to 100,75 to 100
"C=CC(=O)N1CCN(c2nc(OC[C@@H]3CCCN3C)c(C#N)c3c2CCN(c2cccc4cccc(Cl)c24)C3)CC1CC#N (single isomer, unassigned) [Ex 24]",75 to 100,75 to 100,75 to 100,75 to 100
"C=C(F)C(=O)N1CCN(c2nc(OC[C@@H]3CCCN3C)c(C#N)c3c2CCN(c2cccc4cccc(Cl)c24)C3)C[C@H]1CC#N [Ex 28, 6-(8-chloronaphthalen-1-yl)-1-((R)-3-(cyanomethyl)-4-(2-fluoroacryloyl)piperazin-1-yl)-3-(((S)-1-methylpyrrolidin-2-yl)methoxy)-5,6,7,8-tetrahydro-2,6-naphthyridine-4-carbonitrile]",50 to 75,75 to 100,75 to 100,75 to 100
"C=CC(=O)N1CCN(c2nc(N3CCCCC3)c(C#N)c3c2CCN(Cc2ccccc2)C3)CC1 [Ex 42, 1-(4-acryloylpiperazin-1-yl)-6-benzyl-3-(piperidin-1-yl)-5,6,7,8-tetrahydro-2,6-naphthyridine-4-carbonitrile]",–,25 to 50,–,–
"C=CC(=O)N1CCN(c2nc(-c3ccnc(F)c3)c(C#N)c3c2CCN(Cc2ccccc2)C3)CC1 [Ex 43, 1-(4-acryloylpiperazin-1-yl)-6-benzyl-3-(2-fluoropyridin-4-yl)-5,6,7,8-tetrahydro-2,6-naphthyridine-4-carbonitrile]",–,25 to 50,–,–
"C=CC(=O)N1CCN(c2nc(N3CCCCC3)c(C#N)c3c2CCN(c2cccc4ccccc24)C3)CC1 [Ex 44, 1-(4-acryloylpiperazin-1-yl)-6-(naphthalen-1-yl)-3-(piperidin-1-yl)-5,6,7,8-tetrahydro-2,6-naphthyridine-4-carbonitrile]",–,≤ 25,–,–
"C=CC(=O)N1CCN(c2nc(OCC3CCCN3C)c(C#N)c3c2CCN(Cc2ccccc2)C3)CC1 (centres unmarked) [Ex 45, 1-(4-acryloylpiperazin-1-yl)-6-benzyl-3-((1-methylpyrrolidin-2-yl)methoxy)-5,6,7,8-tetrahydro-2,6-naphthyridine-4-carbonitrile]",–,≤ 25,–,–
"C=CC(=O)N1CCN(c2nc(N3CCN(C(=O)C=C)CC3)c3c(c2C#N)CN(c2cccc4ccccc24)CC3)CC1 [Ex 46, 1,3-bis(4-acryloylpiperazin-1-yl)-6-(naphthalen-1-yl)-5,6,7,8-tetrahydro-2,6-naphthyridine-4-carbonitrile]",–,75 to 100,–,–
"C=CC(=O)N1CCN(c2nc(N3CCN(C(=O)C=C)CC3)c3c(c2C#N)CN(c2cccc4sccc24)CC3)CC1 [Ex 47, 1,3-bis(4-acryloylpiperazin-1-yl)-6-(benzo[b]thiophen-4-yl)-5,6,7,8-tetrahydro-2,6-naphthyridine-4-carbonitrile]",–,75 to 100,–,–
"C=CC(=O)N1CCN(c2nc(N3CCN(C(=O)CC)CC3)c(C#N)c3c2CCN(c2cccc4ccccc24)C3)CC1 [Ex 48, 1-(4-acryloylpiperazin-1-yl)-6-(naphthalen-1-yl)-3-(4-propionylpiperazin-1-yl)-5,6,7,8-tetrahydro-2,6-naphthyridine-4-carbonitrile]",–,75 to 100,–,–
"C=CC(=O)N1CCN(c2nc(N3CCN(C(=O)CC)CC3)c3c(c2C#N)CN(c2cccc4ccccc24)CC3)CC1 [Ex 49, 3-(4-acryloylpiperazin-1-yl)-6-(naphthalen-1-yl)-1-(4-propionylpiperazin-1-yl)-5,6,7,8-tetrahydro-2,6-naphthyridine-4-carbonitrile]",–,75 to 100,–,–
"C=CC(=O)N1CCN(c2nc(N3CCOCC3)c(C#N)c3c2CCN(c2cccc4ccccc24)C3)CC1 [Ex 50, 1-(4-acryloylpiperazin-1-yl)-3-morpholino-6-(naphthalen-1-yl)-5,6,7,8-tetrahydro-2,6-naphthyridine-4-carbonitrile]",–,75 to 100,–,–
"C=CC(=O)N1CCN(c2nc(N3CCN(C(C)=O)CC3)c(C#N)c3c2CCN(c2cccc4ccccc24)C3)CC1 [Ex 51, 3-(4-acetylpiperazin-1-yl)-1-(4-acryloylpiperazin-1-yl)-6-(naphthalen-1-yl)-5,6,7,8-tetrahydro-2,6-naphthyridine-4-carbonitrile]",–,50 to 75,–,–
"C=CC(=O)N1CCN(c2nc(N3CC(C)OC(C)C3)c(C#N)c3c2CCN(c2cccc4ccccc24)C3)CC1 (centres unmarked) [Ex 52, 1-(4-acryloylpiperazin-1-yl)-3-(2,6-dimethylmorpholino)-6-(naphthalen-1-yl)-5,6,7,8-tetrahydro-2,6-naphthyridine-4-carbonitrile]",–,75 to 100,–,75 to 100
"C=CC(=O)N1CCN(c2nc(N3CCN(S(C)(=O)=O)CC3)c(C#N)c3c2CCN(c2cccc4ccccc24)C3)CC1 [Ex 53, 1-(4-acryloylpiperazin-1-yl)-3-(4-(methylsulfonyl)piperazin-1-yl)-6-(naphthalen-1-yl)-5,6,7,8-tetrahydro-2,6-naphthyridine-4-carbonitrile]",–,75 to 100,–,75 to 100
"C=CC(=O)N1CCN(c2nc(N3CCN(CC)CC3)c(C#N)c3c2CCN(c2cccc4ccccc24)C3)CC1 [Ex 54, 1-(4-acryloylpiperazin-1-yl)-3-(4-ethylpiperazin-1-yl)-6-(naphthalen-1-yl)-5,6,7,8-tetrahydro-2,6-naphthyridine-4-carbonitrile]",–,75 to 100,–,75 to 100
"C=CC(=O)N1CCN(c2nc(OC[C@@H]3CCCN3C)c(C#N)c3c2CCN(c2cccc4ccccc24)C3)CC1 [Ex 55, (S)-1-(4-acryloylpiperazin-1-yl)-3-((1-methylpyrrolidin-2-yl)methoxy)-6-(naphthalen-1-yl)-5,6,7,8-tetrahydro-2,6-naphthyridine-4-carbonitrile]",–,75 to 100,–,75 to 100
"C=CC(=O)N1CCN(c2ncc(C#N)c3c2CCN(c2cccc4ccccc24)C3)CC1 [Ex 56, 1-(4-acryloylpiperazin-1-yl)-6-(naphthalen-1-yl)-5,6,7,8-tetrahydro-2,6-naphthyridine-4-carbonitrile]",–,≤ 25,–,–
"C=C(F)C(=O)N1CCN(c2nc(N3CCN(C(=O)CC)CC3)c(C#N)c3c2CCN(c2cccc4ccccc24)C3)CC1 [Ex 57, 1-(4-(2-fluoroacryloyl)piperazin-1-yl)-6-(naphthalen-1-yl)-3-(4-propionylpiperazin-1-yl)-5,6,7,8-tetrahydro-2,6-naphthyridine-4-carbonitrile]",–,75 to 100,–,–
